BindingDB's records for doi:10.1016/j.bmcl.2007.07.104 (Glaxosmithkline, 2007)

Target: Proto-oncogene tyrosine-protein kinase receptor Ret (Homo sapiens, UniProt P07949)
Experiment: RET Kinase Inhibition Assay
Settings: pH 7.4; 22 °C

Proto-oncogene tyrosine-protein kinase receptor Ret, sequence (P07949 whole entry): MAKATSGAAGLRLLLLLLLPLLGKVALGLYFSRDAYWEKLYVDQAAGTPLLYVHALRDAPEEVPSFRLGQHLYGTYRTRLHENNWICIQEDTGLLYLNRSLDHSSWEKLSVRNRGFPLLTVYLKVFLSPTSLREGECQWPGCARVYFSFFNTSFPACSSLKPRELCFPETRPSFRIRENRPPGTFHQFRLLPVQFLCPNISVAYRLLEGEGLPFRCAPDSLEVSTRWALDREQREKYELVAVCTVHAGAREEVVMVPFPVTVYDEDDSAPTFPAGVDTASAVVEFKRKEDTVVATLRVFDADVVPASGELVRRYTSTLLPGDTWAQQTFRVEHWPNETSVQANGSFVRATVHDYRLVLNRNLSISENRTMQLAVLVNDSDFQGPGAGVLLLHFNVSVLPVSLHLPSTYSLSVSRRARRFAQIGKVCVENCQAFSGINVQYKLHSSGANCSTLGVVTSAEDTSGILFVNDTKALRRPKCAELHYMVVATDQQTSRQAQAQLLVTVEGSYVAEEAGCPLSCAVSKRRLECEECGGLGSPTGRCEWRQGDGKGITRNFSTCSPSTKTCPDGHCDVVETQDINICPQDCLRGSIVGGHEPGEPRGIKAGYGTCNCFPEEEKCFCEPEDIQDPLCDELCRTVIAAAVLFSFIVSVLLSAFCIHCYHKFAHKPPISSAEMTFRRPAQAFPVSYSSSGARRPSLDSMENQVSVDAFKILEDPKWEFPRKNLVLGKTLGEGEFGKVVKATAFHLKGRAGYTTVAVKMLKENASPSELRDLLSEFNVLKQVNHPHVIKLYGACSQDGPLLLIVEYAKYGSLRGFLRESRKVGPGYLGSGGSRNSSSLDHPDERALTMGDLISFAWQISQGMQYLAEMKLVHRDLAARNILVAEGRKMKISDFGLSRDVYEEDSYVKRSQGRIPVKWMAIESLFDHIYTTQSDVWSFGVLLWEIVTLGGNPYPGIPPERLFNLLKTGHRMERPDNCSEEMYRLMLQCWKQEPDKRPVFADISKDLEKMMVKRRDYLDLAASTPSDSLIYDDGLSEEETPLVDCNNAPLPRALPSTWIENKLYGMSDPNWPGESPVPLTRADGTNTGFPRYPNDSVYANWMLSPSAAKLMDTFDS

IC50: > 1000 nM
Compound: Cc1ccc(O)cc1Nc1cc(C(F)(F)F)nc2ccc(-c3ccncc3)cc12 [4-methyl-3-{[6-(pyridin-4-yl)-2-(trifluoromethyl)quinolin-4-yl]amino}phenol]
